Measurements: patent publication US11065201B2, “Gel formulations for local drug release” (TECHNICAL UNIVERSITY OF DENMARK, priority 2014, dated 2021)

How the values were obtained:
[1] = cited from earlier work
[2] = tested on: FaDu Head and Neck xenografts; assay: Diffusion of Hoechst evaluated by fluorescent imaging of tumor cryo-sections; format: in vivo, NMRI nude mice
Method: Formulations of lactose isobutyrate:X-SAIB (contrast agent): EtOH and DMSO with composition of 1)75:5:15:5, 2) 77, 5:5:12, 5:5 and 2) 80:5:10:5 were prepared along with formulations of lactose acetate:propionate(1:1):X-SAIB(contrast agent): EtOH and DMSO in 75:5:15:5 ratio. All of the gel formulations were prepared with ˜0.7‰ of Hoechst 33342, as model of a DNA binding drug. 25-30 uL of each gel was injected into FaDu Head and Neck xenografts grown on the flank of NMRI nude mice (groups of 4-8 mice were injected with each formulation). Release and gel-stability was monitored for a maximum of 5-6 days. 2-3 mice were sacrificed at predetermined times (day 1, middle of the experimental period and at the end of the experimental period). The tumors were excised and snap-frozen with liquid N2 to preserve the tumor tissue for histological examination. Stability of the radiopaque gel-depots was evaluated by micro-CT imaging (see FIG. 18). Only the lactose isobutyrate gel was subjected to X-rays, to evaluate the effect of radiation on gel-stability. […] Diffusion of Hoechst was evaluated by fluorescent imaging of the tumor cryo-sections (see FIG. 19).

[3] = Gel formation after injection of sugar ester formulations into PBS buffer; format: physicochemical; conditions: for injection into PBS and gel-formation: formulated with 35% and 20% propylene carbonate, respectively
Method: The gel-forming properties of the synthesized esters containing only small percentages of organic solvents and/or triglycerides were inspected in the following experiments
˜210 mg of the following sugar ester formulations: α,β Lactose octaacetate: α,β Lactose octaisobutyrate 5:1, α,β Lactose octaacetate: α,β Lactose octaisobutyrate 2:1, α,β Lactose octaacetate: α,β Lactose octaisobutyrate 1:1, α,β Lactose octaacetate: α,β Lactose octapropionate 1:1, α,β Lactose octaacetate: α,β Lactose octapropionate 1:5, α,β Lactose octaacetate: α,β Lactose octapropionate 1:3, α,β Lactose octapropionate: α,β Lactose octaisobutyrate 1:1, α,β Lactose octaacetate: α,β Lactose octaisobutyrate 1:5, α,β Lactose octapropionate, α,β Lactose octaisobutyrate: α,β Lactose octaacetate 0.5:0.5:5, α,β Lactose octaisobutyrate: α,β Lactose octaacetate 3:1, Trehalose octaacetate:Trehalose octapropionate 1:1, Trehalose octapropionate, Trehalose octaisobutyrate, Raffinose undecaacetate:Raffinose undecapropionate 1:1, Raffinose undecaisobutyrate, β-maltose octaisobutyrate and α,β-D-glucosamine pentapropionate were mixed with 20 wt % EtOH by heating to ˜37° C., vortexing and ultrasonication. ˜50-80 uL of the resulting formulations were then injected into 2 mL of PBS buffer using 25 G needles.
˜210 mg of the following sugar ester formulations: α,β Lactose octaacetate, α,β lactose octapropionate, α,β Lactose octaacetate: α,β lactose octapropionate 1:1, α,β lactose octaisobutyrate, α,β maltose octapropionate, β maltose octapropionate, α-D-glucosamine pentapropionate, α, β-D-glucosamine pentapropionate, β maltose octapropionate: α-D-glucosamine pentapropionate 1:1 and α-D-glucosamine pentaisobutyrate were mixed with 20 wt % NMP or DMSO by heating to ˜37° C., vortexing and ultrasonication. ˜50-60 uL of the resulting formulations were injected into PBS. With maltose octapropionate, glucosamine pentapropionate and lactose octaacetate alternative wt % of solvents were also tried (i.e. 25-40 wt % of the before mentioned solvents). […] In case of α,β-maltose propionate and α,β-D-glucosamine pentapropionate, injection into PBS and gel-formation are also successful when formulated with 35% and 20% propylene carbonate, respectively (examples shown in FIG. 1). Pure α-D-Glucosamine esters and hydrophilic maltose ester analogues have a tendency to form hard amorphous solids with some crystallinity after injection into PBS—so although ˜20 wt % solvent is possible to inject with difficulty, gels of this type containing ˜25-35 wt % solvent are easier to handle.
˜210 mg of α,β Lactose octaacetate: α,β Lactose octapropionate 1:1 or α,β Lactose octaisobutyrate were mixed with 2, 5 or 10 wt % glycerol trioctanoate, 5% DMSO and EtOH was added to give 20 wt % solvent in total for all formulations. In case of lactose octaisobutyrate, formulations containing 15 wt % glycerol trioctanoate and 5% DMSO, 30 wt % glycerol trioctanoate and 5% NMP/DMSO or 40 wt % glycerol trioctanoate alone were also made. The solutions were mixed by heating to ˜37° C., vortexing and ultrasonication. ˜40-60 uL of the resulting formulations were injected into PBS.

[4] = 20 wt % EtOH, ~50-80 uL injected into 2 mL PBS buffer, 25 G needles
[5] = 20 wt % NMP or DMSO (25-40 wt % also tried for some), ~50-60 uL injected into PBS

In the case of `O=C([O-])c1ccccc1-c1c2cc(Br)c(=O)c(Br)c-2oc2c(Br)c([O-])c(Br)cc12.[Na+].[Na+]` [Eosin Y], the “Log P” value [1] is given as ~6.4.

In the case of `CCOc1ccc(-c2nc3ccc(-c4nc5ccc(N6CCN(C)CC6)cc5[nH]4)cc3[nH]2)cc1` [Hoechst 33342], the “release of Hoechst into the tumors” value ([2]; from gel depots, ~0.7‰ Hoechst 33342, tumor cryo-sections) is reported as “confirmed release of Hoechst into the tumors” and the “distribution of the fluorophore in the tumor” value ([2]; over a period of 6 days) is reported as “distribution of the fluorophore across most of the tumor area”.

With `CC(C)C(=O)OCC1O[C@H](OCC2O[C@@H](O[C@]3(COC(=O)C(C)C)O[C@H](COC(=O)C(C)C)[C@@H](OC(=O)C(C)C)[C@H]3OC(=O)C(C)C)C(OC(=O)C(C)C)[C@@H](OC(=O)C(C)C)[C@@H]2OC(=O)C(C)C)C(OC(=O)C(C)C)[C@@H](OC(=O)C(C)C)[C@H]1OC(=O)C(C)C` (stereo partly drawn) [Raffinose undecaisobutyrate, Raffinose Undecaisobutyrate] the “gel formation upon injection” value [3, 4] was “formed gels upon injection”.

In the case of `CCC(=O)OCC1O[C@@H](O[C@H]2OC(COC(=O)CC)[C@@H](OC(=O)CC)[C@H](OC(=O)CC)C2OC(=O)CC)C(OC(=O)CC)C(OC(=O)CC)[C@H]1OC(=O)CC` (stereo partly drawn) [Trehalose octapropionate, Trehalose Octapropionate], the “gel formation upon injection” value [3, 4] is reported as “formed gels upon injection”.

For `O=C1OC2(c3ccc(O)cc3Oc3cc(O)ccc32)c2ccccc21` [fluorescein free acid], the “Log P” value [1] is given as ~1.8.

In the case of `NNC(=O)c1ccncc1` [isoniazide], the “Log P” value [1] is given as ~−0.8.

For `Nc1n[n+]([O-])c2ccccc2[n+]1[O-]` [tirapazamine], the “Log P” value [1] is listed as ~−0.06.

For `CC(=O)OC[C@H]1O[C@@H](O[C@H]2[C@H](OC(C)=O)[C@@H](OC(C)=O)C(OC(C)=O)O[C@@H]2COC(C)=O)[C@H](OC(C)=O)[C@@H](OC(C)=O)[C@H]1OC(C)=O` (stereo partly drawn) [α,β Lactose octaacetate, α,β-Lactose Octaacetate], the injectability ([3]; 20 wt % DMSO or 20 wt % propylene carbonate) was “this occurs with difficulty due to high viscosity” and the “gel formation upon injection” value [3, 5] was “formation of an amorphous solid (gel) was seen”.

With `CC(C)C(=O)OC[C@H]1O[C@@H](O[C@H]2[C@H](OC(=O)C(C)C)[C@@H](OC(=O)C(C)C)C(OC(=O)C(C)C)O[C@@H]2COC(=O)C(C)C)[C@H](OC(=O)C(C)C)[C@@H](OC(=O)C(C)C)[C@H]1OC(=O)C(C)C` (stereo partly drawn) [α,β lactose octaisobutyrate, α,β-Lactose Octaisobutyrate] the “gel formation upon injection” value ([3]; 2-40 wt % glycerol trioctanoate, with DMSO/NMP/EtOH, ~40-60 uL injected into PBS) was “formation of an amorphous solid (gel) was seen”, the “gel formation upon injection” value [3, 5] was “formation of an amorphous solid (gel) was seen” and the “appearance of the injected solid” value ([3]; pure triglyceride used as solvent (40 wt % glycerol trioctanoate alone), up to 24 h after injection) was “very soft, transparant and could easily be manipulated in shape”.

With `CCC(=O)OC[C@H]1O[C@@H](O[C@H]2[C@H](OC(=O)CC)[C@@H](OC(=O)CC)C(OC(=O)CC)O[C@@H]2COC(=O)CC)[C@H](OC(=O)CC)[C@@H](OC(=O)CC)[C@H]1OC(=O)CC` (stereo partly drawn) [α,β lactose octapropionate, α,β-Lactose Octapropionate] the “gel formation upon injection” value [3, 5] was “formation of an amorphous solid (gel) was seen”.

For `CCC(=O)OCC1OC(OC(=O)CC)C(OC(=O)CC)[C@@H](OC(=O)CC)[C@@H]1O[C@H]1OC(COC(=O)CC)[C@@H](OC(=O)CC)[C@H](OC(=O)CC)C1OC(=O)CC` (stereo partly drawn) [α,β maltose octapropionate, α,β-Maltose Octapropionate], the “gel formation upon injection” value [3, 5] was “formation of an amorphous solid (gel) was seen” and the “injection into PBS and gel-formation” value [3] was “successful”.

For `CCC(=O)NC1C(OC(=O)CC)OC(COC(=O)CC)[C@@H](OC(=O)CC)[C@@H]1OC(=O)CC` (stereo partly drawn) [α,β-D-glucosamine pentapropionate, α,β-D Glucosamine Pentapropionate], the “gel formation upon injection” value [3, 4] was “formed gels upon injection”, the “gel formation upon injection” value [3, 5] was “formation of an amorphous solid (gel) was seen” and the “injection into PBS and gel-formation” value [3] was “successful”.

In the case of `CC(C)C(=O)NC1[C@@H](OC(=O)C(C)C)OC(COC(=O)C(C)C)[C@@H](OC(=O)C(C)C)[C@@H]1OC(=O)C(C)C` (stereo partly drawn) [α-D-glucosamine pentaisobutyrate, α-D Glucosamine Pentaisobutyrate], the “gel formation upon injection” value [3, 5] is reported as “formation of an amorphous solid (gel) was seen”.

For `CCC(=O)NC1[C@@H](OC(=O)CC)OC(COC(=O)CC)[C@@H](OC(=O)CC)[C@@H]1OC(=O)CC` (stereo partly drawn) [α-D-glucosamine pentapropionate, α-D Glucosamine Pentapropionate], the “gel formation upon injection” value [3, 5] was “formation of an amorphous solid (gel) was seen”.

With `CCC(=O)OCC1O[C@H](O[C@@H]2C(COC(=O)CC)O[C@@H](OC(=O)CC)C(OC(=O)CC)[C@H]2OC(=O)CC)C(OC(=O)CC)[C@@H](OC(=O)CC)[C@@H]1OC(=O)CC` (stereo partly drawn) [β maltose octapropionate, β-Maltose Octapropionate] the “gel formation upon injection” value [3, 5] was “formation of an amorphous solid (gel) was seen”.

For `CC(C)C(=O)OCC1O[C@H](O[C@@H]2C(COC(=O)C(C)C)O[C@@H](OC(=O)C(C)C)C(OC(=O)C(C)C)[C@H]2OC(=O)C(C)C)C(OC(=O)C(C)C)[C@@H](OC(=O)C(C)C)[C@@H]1OC(=O)C(C)C` (stereo partly drawn) [β-maltose octaisobutyrate, β-Maltose Octaisobutyrate], the “gel formation upon injection” value [3, 4] was “formed gels upon injection”.

With Trehalose Octaisobutyrate the “gel formation upon injection” value [3, 4] was “formed gels upon injection”.
